# In patent publication US20240417435A1, “DEFENSIN-DERIVED PEPTIDE WITH ANTIBACTERIAL ACTIVITY ALSO AGAINST MULTI-ANTIBIOTIC-RESISTANT BACTERIA” (priority 2021, published 2024):
# Where a SMILES comes first, the peptide text is derived from it.
# How the values were obtained:
# E. coli ATCC 13762 = assay type: cell-based, Escherichia coli
# Description: (§1) The antimicrobial activity of peptide γ2 was evaluated versus Pseudomonas aeruginosa ATCC 27853, Escherichia coli ATCC 13762 and Staphylococcus aureus ATCC 6538, and versus multidrug-resistant (MDR) clinical isolates of Methicillin-Resistant Staphylococcus aureus (MRSA), extended-spectrum β-lactamase (ESBL)-producing E. coli, P. aeruginosa and Acinetobacter baumannii complex. The isolates were identified by mass spectrometry using the MALDI (matrix-assisted laser desorption/ionisation) mass spectrometer and the biochemical phenotyping method in a VITEKR 2 bioMérieux system (bioMérieux Italia S.p.a., Bagno a Ripoli, Florence, Italy), according to the manufacturer's instructions. The antibiotic susceptibility profile was evaluated with the VITEKR 2 bioMérieux System. The microorganisms were cultured in broth and agar at 37° C. The media used were BD Brain Heart Infusion broth (BHI) (BD, Franklin Lakes, NJ, USA) and BHI agar (OXOID, Basingstoke, Hampshire, UK), BD Trypticase Soy agar with 5% sheep's blood and MacConkey agar (OXOID, Basingstoke, Hampshire, UK). The isolates were stored frozen at −80° C. in BHI broth supplemented with 10% (v/v) glycerol (Carlo Erba Reagents, Milan, Italy) until use, and the work cultures were activated in the respective broths at 37° C. for 15-18 h.
# (§2) Assays of the antibacterial activity of peptide γ2, in both reduced and oxidised form, were conducted against P. aeruginosa ATCC 27853, E. coli ATCC 13762, S. aureus ATCC 6538 and MDR clinical isolates. The strains were cultured under aerobic conditions in BHI broth at 37° C. and incubated with peptide γ2 for 2 hours at 37° C. Various concentrations of peptide were used, ranging from 1 μM to 128 μM. Each test was conducted in triplicate with three independent cultures. The minimum inhibitory concentration (MIC) and the minimum bactericidal concentration (MBC) of the peptide were determined with a modified version of the Clinical and Laboratory Standards Institute broth microdilution assay, using a final inoculum concentration of 10^5 CFU/ml, as previously described (Scudiero O et al., Antimicrob Agents Chemother 2010; 54:2312-22; Scudiero O et al. Antimicrob Ag Chemother 2013; 57:1701-8).
# (§3) The MIC is indicated by the concentration interval, which comprise the upper growth limit and the first concentration which could not support visible bacterial growth after incubation. The MBC was defined as the lowest concentration at which no viable colonies were observed. The peptide concentrations were 128.0, 64.0, 32.0, 16.0, 8.0, 4.0, 2.0 and 1 μM. For the time-kill studies against the ATCC and MDR strains, the bacteria were cultured in BHI broth until the late log growth phase at 37° C. The bacterial suspensions, containing about 10^6 CFU/ml (adjusted by the spectrophotometer to OD600 nm), were diluted 1:100 in PBS1× and then incubated at 37° C. with or without the peptide, selected at concentrations corresponding to 1, 2 and 4×MIC (as determined above). At baseline and 1, 2, 3 and 5 hours after incubation, a portion of each sample was harvested, diluted in series in PBS1× and seeded on BHI agar. The plates were incubated for […] at 37° C., and the viable bacteria count was conducted by the CFU method. All the data were expressed as mean±SD of three independent experiments.
# P. aeruginosa ATCC 27853 [1] = assay type: cell-based, Pseudomonas aeruginosa
# Description: as §1, §2, §3
# [2] = test system: P. aeruginosa MDR strain 1; assay type: cell-based, Pseudomonas aeruginosa
# Description: as §1, §2, §3
# [3] = test system: P. aeruginosa MDR strain 2; assay type: cell-based, Pseudomonas aeruginosa
# Description: as §1, §2, §3
# MRSA strains = assay: In vitro time-kill kinetics assay; assay type: cell-based, Staphylococcus aureus; conditions: all MRSA strains; peptide at MIC; after 2 hours' incubation, throughout observation period
# Description: as §3
# [4] = test system: S. aureus ATCC 6538 (ATCC reference strain); assay: In vitro time-kill kinetics assay; assay type: cell-based, Staphylococcus aureus; conditions: peptide at MIC, after 2 hours' incubation
# Description: as §3
# [5] = test system: E. coli ATCC 13762 (ATCC reference strain); assay: In vitro time-kill kinetics assay; assay type: cell-based, Escherichia coli; conditions: peptide at MIC, after 2 hours' incubation
# Description: as §3
# ESBL strains of E. coli = assay: In vitro time-kill kinetics assay; assay type: cell-based, Escherichia coli; conditions: peptide at MIC, after 2 hours' incubation, throughout observation period
# Description: as §3
# P. aeruginosa ATCC 27853 [6] = assay: In vitro time-kill kinetics assay; assay type: cell-based, Pseudomonas aeruginosa
# Description: as §3
# [7] = test system: P. aeruginosa MDR 2 strain; assay: In vitro time-kill kinetics assay; assay type: cell-based, Pseudomonas aeruginosa
# Description: as §3
# A. baumannii MDR 2 = assay: In vitro time-kill kinetics assay; assay type: cell-based, Acinetobacter baumannii complex
# Description: as §3
smiles,measurement,setting,value
CC[C@H](C)[C@H](NC(=O)[C@H](CCC(N)=O)NC(=O)[C@H](CCCNC(=N)N)NC(=O)[C@H](CCCNC(=N)N)NC(=O)[C@H](CCCCN)NC(=O)[C@@H]1CCCN1C(=O)[C@H](CC(C)C)NC(=O)[C@H](CS)NC(C)=O)C(=O)NCC(=O)N[C@@H](CCCCN)C(=O)N[C@@H](CO)C(=O)N[C@@H](CO)C(=O)N[C@H](C(=O)N[C@@H](CCCNC(=N)N)C(=O)NCC(=O)N[C@@H](CCCNC(=N)N)C(=O)N[C@@H](CCCCN)C(=O)N[C@@H](CO)C(=O)N[C@@H](CS)C(=O)N[C@@H](CCCCN)C(=O)N[C@@H](CCCCN)C(N)=O)[C@@H](C)O [Reduced peptide γ2] (Ac-CLPKRRQIGKSSTRGRKSCKK-NH2),MBC,E. coli ATCC 13762,2 µM
same,MIC,E. coli ATCC 13762,2 µM
same,MBC,P. aeruginosa ATCC 27853 [1],1 µM
same,MBC,[2],64 µM
same,MBC,[3],1 µM
same,MIC,[3],1 µM
same,growth in time-kill assay,MRSA strains,total reduction in growth
same,growth in time-kill assay,[4],total reduction in growth
same,growth in time-kill assay,[5],total reduction in growth
same,growth in time-kill assay,ESBL strains of E. coli,total reduction in growth
same,growth in time-kill assay,P. aeruginosa ATCC 27853 [6]; peptide at 2×MIC,no growth
same,growth and viability in time-kill assay,P. aeruginosa ATCC 27853 [6]; peptide at MIC only,"initial reduction in growth and viability in the first few hours of observation, whereas at longer times (5 and 7 h) a slight resumption in growth and viability"
same,growth in time-kill assay,[7]; peptide at 2×MIC,no growth
same,growth and viability in time-kill assay,[7]; peptide at MIC only,"initial reduction in growth and viability in the first few hours of observation, whereas at longer times (5 and 7 h) a slight resumption in growth and viability"
same,growth and viability in time-kill assay,A. baumannii MDR 2; after 2 hours' treatment,great reduction in growth and viability
same,growth and viability in time-kill assay,"A. baumannii MDR 2; longer observation times, even at 4×MIC",slight recovery of growth and viability
